In paper PMC5967867, “An NMDAR positive and negative allosteric modulator series share a binding site and are interconverted by methyl groups” (eLife, 2018):
“And” between values parts separate entries of the source, which are not always exact repeats. Equal entries are not always repeated. Where two headings read alike, the source gives them in different places.

How the values were obtained:
Type in all cases: cell-based
GluN1/GluN2C NMDARs = GluN1/GluN2C NMDARs (Rattus norvegicus, UniProt P35439+Q00961); test: Two-electrode voltage-clamp recordings, Xenopus laevis oocytes expressing GluN1/GluN2C; settings: for Modulation by 10 µM (% of control): 10 µM modulator; for IC50: glutamate/glycine 100/30 µM; for EC50: read-out: EC50 (µM) [conf. int.]; for Emax: read-out: Maximal Degree of Modulation (% of control)
Method: (§1) cDNAs for rat wild type NMDAR subunits GluN1-1a (GenBank U11418, U08261; hereafter GluN1 or GluN1a), GluN1-1b (U08263, hereafter GluN1b), GluN2A (D13211), GluN2B (U11419), GluN2C (M91563), and GluN2D (L31611, modified as described in [Monyer et al., 1994]) were provided by Drs. S. Heinemann (Salk Institute), S. Nakanishi (Kyoto University), and P. Seeburg (University of Heidelberg). Site-directed mutagenesis was conducted using the QuikChange kit (Agilent Technologies, Santa Clara, CA) following the recommended protocol. DNA sequencing was used to verify all mutations. The amino acid numbering system started with the initiating methionine as residue number one. For expression in Xenopus laevis oocytes, cDNA constructs were linearized by restriction enzymes, and subsequently used to synthesize in vitro cRNAs following the manufacturer’s protocol (mMessage mMachine, Ambion, ThermoFisher Scientific, Waltham, MA).
(§2) Xenopus laevis stage VI oocytes (Ecocyte Biosciences, Austin, TX) were injected as previously described ([Hansen et al., 2013]) 2–7 days prior to recording with cRNA encoding the NMDAR subunits and stored at 15°C in media containing (in mM) 88 NaCl, 2.4 NaHCO3, 1 KCl, 0.33 Ca(NO3)2, 0.41 CaCl2, 0.82 MgSO4, 5 Tris-HCl; pH was adjusted to 7.4 with NaOH and the solution supplemented with 1 U/mL penicillin, 0.1 mg/mL gentamicin sulfate, and 1 μg/mL streptomycin. Two-electrode voltage-clamp recordings were performed at room temperature (21–23°C) using different internal solutions for voltage and current electrodes (0.3 M and 3.0 M KCl, respectively). All extracellular solutions were made from a solution containing (in mM) 90 NaCl, 1 KCl, 10 HEPES, 0.5 BaCl2, 0.01 EDTA (pH 7.4 with NaOH). Experiments were performed using an eight port Modular Valve Positioner (Hamilton Company, Reno, NV) and controlled by custom software (Easy Oocyte, Emory University, Atlanta, GA)to exchange solutions. Oocyte currents were recorded at a holding potential of −40 mV using a two-electrode voltage-clamp amplifier (OC-725B or OC-725C, Warner Instruments, Hamden, CT). […] In MTSEA experiments, fresh MTSEA solutions (0.2 mM) were prepared and utilized in less than 30 min to limit compound degradation.
(§3) Measurements are given as mean ± SEM unless otherwise indicated. The number of replicate experiments used was chosen to ensure a power level of at least 0.80 when α = 0.05 and when detecting appropriate effect sizes. EC50 and IC50 values and confidence intervals reported were calculated by averaging the log(EC50) or log(IC50) value, determining confidence intervals for mean log(EC50) or log(IC50), and converting back to units of molarity. Statistical significance evaluations (α set to 0.05) were performed using a one-way ANOVA with Dunnett’s multiple comparison test, a paired t–test, or other appropriate tests as described.

GluN1/GluN2A NMDARs = GluN1/GluN2A NMDARs (Rattus norvegicus, UniProt P35439+Q00959); test: Two-electrode voltage-clamp recordings, Xenopus laevis oocytes expressing GluN1/GluN2A; settings: for IC50: glutamate/glycine 100/30 µM; for EC50: read-out: EC50 (µM) [conf. int.]; for Emax: read-out: Maximal Degree of Modulation (% of control)
Method: as §1, §2, §3

GluN1/GluN2B NMDARs = GluN1/GluN2B NMDARs (Rattus norvegicus, UniProt P35439+Q00960); test: Two-electrode voltage-clamp recordings, Xenopus laevis oocytes expressing GluN1/GluN2B; settings: for EC50: read-out: EC50 (µM) [conf. int.]; for Emax: read-out: Maximal Degree of Modulation (% of control)
Method: as §1, §2, §3

GluN1/GluN2D NMDARs = GluN1/GluN2D NMDARs (Rattus norvegicus, UniProt P35439+Q62645); test: Whole cell patch-clamp recordings, HEK293 cells expressing GluN1/GluN2D
Method: We studied NMDARs expressed in HEK293 cells to investigate the time course of modulator action. […] These modulators were tested on GluN1/GluN2A and GluN1/GluN2D to see whether there were differences in modulation given the distinct properties of these NMDAR subtypes. […] The time-course of modulator binding of EU1794-2, EU1794-4 and EU1794-27 was also determined for GluN1/GluN2A (Figure 4C,D).
as §1
HEK293 cells (CRL-1573, ATCC, Manassas, VA) were maintained in a tissue culture room solely reserved for their culturing and transfected using a CaPO4 protocol to express the diheteromeric NMDARs as previously described ([Hansen et al., 2013]). Cell lines were obtained directly from the supplier, were expanded, frozen and kept in liquid nitrogen in a dewar. Mycoplasma testing was not performed. cDNA ratios for transfection were 1:1:1 (GluN2D) or 1:1:5 (GluN2A) for GluN1:GluN2:GFP.

[1] = +EU1794-27 3 µM, read-out: EU1794-2 IC50 (µM) [conf. int.]
[2] = +EU1794-27 10 µM, read-out: EU1794-2 IC50 (µM) [conf. int.]
[3] = +EU1794-27 20 µM, read-out: EU1794-2 IC50 (µM) [conf. int.]
[4] = no second modulator (+EU1794-27 0 µM), read-out: IC50 (µM) [conf. int.]
[5] = saturating glutamate/glycine 100/30 µM, mean ± SEM
[6] = sub-saturating glutamate/glycine 0.6/0.2 µM
[7] = saturating glutamate/glycine 100/30 µM, mean [95% CI], - = not fit, response at 30 µM differed by no more than 15% from control

Sequence of GluN1/GluN2B NMDARs (Q00960 27-1482, other chains not shown): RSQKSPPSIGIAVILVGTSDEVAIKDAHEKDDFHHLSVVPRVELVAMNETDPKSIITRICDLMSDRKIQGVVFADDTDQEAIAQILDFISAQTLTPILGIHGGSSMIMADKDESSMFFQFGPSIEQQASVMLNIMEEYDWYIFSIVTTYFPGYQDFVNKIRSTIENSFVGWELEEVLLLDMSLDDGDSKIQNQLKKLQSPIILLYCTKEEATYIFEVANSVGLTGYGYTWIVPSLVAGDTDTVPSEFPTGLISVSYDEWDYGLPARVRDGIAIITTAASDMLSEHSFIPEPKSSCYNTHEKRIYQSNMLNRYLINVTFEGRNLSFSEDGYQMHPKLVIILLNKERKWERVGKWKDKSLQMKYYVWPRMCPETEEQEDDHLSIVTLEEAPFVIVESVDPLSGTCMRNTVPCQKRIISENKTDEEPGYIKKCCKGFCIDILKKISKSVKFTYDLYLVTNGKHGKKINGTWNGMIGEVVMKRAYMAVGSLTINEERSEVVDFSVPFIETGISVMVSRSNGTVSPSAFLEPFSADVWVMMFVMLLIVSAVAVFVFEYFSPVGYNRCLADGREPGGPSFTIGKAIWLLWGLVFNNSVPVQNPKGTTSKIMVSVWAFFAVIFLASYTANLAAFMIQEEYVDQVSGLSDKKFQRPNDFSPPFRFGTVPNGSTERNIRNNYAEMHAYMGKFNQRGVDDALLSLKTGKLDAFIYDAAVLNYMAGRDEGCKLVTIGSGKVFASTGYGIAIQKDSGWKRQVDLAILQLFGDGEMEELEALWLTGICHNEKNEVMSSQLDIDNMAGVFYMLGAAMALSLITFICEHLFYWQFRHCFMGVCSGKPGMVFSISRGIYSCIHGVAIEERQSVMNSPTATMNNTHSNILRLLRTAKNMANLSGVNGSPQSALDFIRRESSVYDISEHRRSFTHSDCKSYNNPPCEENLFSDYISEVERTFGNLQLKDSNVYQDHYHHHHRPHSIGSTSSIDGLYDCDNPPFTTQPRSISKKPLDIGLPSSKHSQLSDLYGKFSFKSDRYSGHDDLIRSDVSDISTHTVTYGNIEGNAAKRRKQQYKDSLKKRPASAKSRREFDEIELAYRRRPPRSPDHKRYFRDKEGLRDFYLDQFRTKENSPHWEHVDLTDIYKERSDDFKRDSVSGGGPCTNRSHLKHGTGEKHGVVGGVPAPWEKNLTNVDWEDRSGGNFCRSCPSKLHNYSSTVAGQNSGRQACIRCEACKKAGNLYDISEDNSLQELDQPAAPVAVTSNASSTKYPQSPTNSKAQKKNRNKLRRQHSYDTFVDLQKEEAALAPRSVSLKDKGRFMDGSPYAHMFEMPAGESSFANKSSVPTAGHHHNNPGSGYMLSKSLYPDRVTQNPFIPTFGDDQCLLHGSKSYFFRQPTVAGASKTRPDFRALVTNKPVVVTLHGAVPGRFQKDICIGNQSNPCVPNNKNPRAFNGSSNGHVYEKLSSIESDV
Sequence of GluN1/GluN2D NMDARs (Q62645 28-1323, other chains not shown): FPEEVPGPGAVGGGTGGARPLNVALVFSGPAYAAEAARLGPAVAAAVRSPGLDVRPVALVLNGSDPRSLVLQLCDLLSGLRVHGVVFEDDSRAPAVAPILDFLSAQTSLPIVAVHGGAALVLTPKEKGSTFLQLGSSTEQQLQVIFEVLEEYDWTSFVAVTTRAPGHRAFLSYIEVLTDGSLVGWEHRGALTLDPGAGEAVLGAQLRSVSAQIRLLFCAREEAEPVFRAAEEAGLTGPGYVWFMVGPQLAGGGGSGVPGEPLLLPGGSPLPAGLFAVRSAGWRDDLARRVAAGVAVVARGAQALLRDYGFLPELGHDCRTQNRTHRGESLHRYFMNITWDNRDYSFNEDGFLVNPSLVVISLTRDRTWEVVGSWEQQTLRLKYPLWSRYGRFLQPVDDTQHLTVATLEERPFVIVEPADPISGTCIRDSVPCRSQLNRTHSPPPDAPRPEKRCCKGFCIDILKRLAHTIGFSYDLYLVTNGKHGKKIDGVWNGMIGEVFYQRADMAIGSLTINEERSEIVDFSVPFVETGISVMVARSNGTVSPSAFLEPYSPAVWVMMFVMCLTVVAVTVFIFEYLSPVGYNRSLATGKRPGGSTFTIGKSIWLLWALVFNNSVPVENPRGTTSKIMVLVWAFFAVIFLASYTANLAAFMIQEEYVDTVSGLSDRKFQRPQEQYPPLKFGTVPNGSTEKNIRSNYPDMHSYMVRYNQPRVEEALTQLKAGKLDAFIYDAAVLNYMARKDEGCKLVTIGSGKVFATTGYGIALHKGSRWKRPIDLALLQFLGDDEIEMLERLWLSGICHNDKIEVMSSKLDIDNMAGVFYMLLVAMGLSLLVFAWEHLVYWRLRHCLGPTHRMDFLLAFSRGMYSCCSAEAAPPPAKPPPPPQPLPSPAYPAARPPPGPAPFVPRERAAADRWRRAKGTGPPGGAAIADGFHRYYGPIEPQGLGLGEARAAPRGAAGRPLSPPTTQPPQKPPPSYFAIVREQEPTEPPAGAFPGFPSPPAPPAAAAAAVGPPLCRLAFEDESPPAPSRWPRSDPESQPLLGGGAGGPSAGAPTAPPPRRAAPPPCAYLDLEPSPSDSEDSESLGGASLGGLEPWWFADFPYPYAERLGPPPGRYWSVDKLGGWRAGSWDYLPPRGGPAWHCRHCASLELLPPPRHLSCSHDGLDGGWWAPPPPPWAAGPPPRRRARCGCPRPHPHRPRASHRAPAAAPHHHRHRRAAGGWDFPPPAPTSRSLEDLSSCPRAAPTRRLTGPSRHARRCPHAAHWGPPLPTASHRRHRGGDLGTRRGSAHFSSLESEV
Sequence of GluN1/GluN2A NMDARs (Q00959 23-1464, other chains not shown): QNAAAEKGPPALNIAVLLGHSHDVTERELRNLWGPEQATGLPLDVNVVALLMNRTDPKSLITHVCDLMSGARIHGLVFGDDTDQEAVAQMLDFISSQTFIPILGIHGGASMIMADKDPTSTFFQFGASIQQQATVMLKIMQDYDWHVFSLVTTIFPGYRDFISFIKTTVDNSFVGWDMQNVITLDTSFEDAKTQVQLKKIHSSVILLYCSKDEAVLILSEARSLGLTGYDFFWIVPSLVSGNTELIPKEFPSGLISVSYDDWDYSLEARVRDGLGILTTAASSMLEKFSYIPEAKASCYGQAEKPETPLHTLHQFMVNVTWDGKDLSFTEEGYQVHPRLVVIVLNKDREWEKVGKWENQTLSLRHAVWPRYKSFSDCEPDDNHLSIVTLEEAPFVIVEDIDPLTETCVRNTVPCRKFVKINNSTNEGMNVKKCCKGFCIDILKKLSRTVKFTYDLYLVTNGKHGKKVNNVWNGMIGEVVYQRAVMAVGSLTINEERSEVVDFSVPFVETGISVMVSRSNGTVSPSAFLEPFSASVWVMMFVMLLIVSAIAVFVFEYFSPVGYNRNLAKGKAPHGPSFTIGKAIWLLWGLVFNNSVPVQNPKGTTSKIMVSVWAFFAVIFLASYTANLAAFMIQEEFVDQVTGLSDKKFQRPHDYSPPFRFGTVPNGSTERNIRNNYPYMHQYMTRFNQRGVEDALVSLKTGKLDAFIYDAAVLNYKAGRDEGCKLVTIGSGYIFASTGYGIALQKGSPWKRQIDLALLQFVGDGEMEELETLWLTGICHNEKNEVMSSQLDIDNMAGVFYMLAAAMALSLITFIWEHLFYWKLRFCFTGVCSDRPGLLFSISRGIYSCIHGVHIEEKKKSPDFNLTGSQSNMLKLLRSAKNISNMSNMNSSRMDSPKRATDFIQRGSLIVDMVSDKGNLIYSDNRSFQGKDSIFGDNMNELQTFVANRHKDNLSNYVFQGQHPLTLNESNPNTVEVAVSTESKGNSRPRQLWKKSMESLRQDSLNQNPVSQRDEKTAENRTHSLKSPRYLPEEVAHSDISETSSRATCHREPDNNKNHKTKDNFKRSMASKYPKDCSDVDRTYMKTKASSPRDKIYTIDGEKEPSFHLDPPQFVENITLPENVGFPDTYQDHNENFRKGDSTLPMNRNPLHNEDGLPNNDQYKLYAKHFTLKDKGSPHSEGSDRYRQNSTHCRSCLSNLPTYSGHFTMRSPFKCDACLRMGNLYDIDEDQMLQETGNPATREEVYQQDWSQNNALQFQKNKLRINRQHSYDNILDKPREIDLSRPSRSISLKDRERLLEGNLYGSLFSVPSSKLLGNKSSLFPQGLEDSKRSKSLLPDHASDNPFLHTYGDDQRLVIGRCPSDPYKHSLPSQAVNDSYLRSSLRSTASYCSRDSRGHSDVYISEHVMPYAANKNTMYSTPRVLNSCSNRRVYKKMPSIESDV

Question: How did the “Modulation by 10 µM (% of control)” value (GluN1/GluN2C NMDARs; Glu/Gly 0.6/0.2 µM (sub-saturating)) turn out when `CCOC(=O)c1c(NC(=O)CC2SC(=N)NC2=O)sc2c1CCC(C)C2` (stereo not shown) [EU1794-2, ethyl 2-(2-(2-imino-4-oxothiazolidin-5-yl)acetamido)-6-methyl-4,5,6,7-tetrahydrobenzo[b]thiophene-3-carboxylate] was run?
Answer: 43 ± 2.1 % of control

Question: What about the “Modulation by 10 µM (% of control)” value (GluN1/GluN2C NMDARs; Glu/Gly 100/30 µM) of the same compound?
Answer: 16 ± 1.0 % of control

Question: And the IC50 (GluN1/GluN2C NMDARs; [1])?
Answer: 1.2 µM

Question: What about the IC50 (GluN1/GluN2C NMDARs; [2]) of the same compound?
Answer: 2.4 µM

Question: What about the IC50 (GluN1/GluN2C NMDARs; [3]) of the same compound?
Answer: 6 µM

Question: And the IC50 (GluN1/GluN2C NMDARs; [4])?
Answer: 0.21 µM

Question: And the EC50 (GluN1/GluN2C NMDARs; saturating glutamate/glycine 100/30 µM, mean [95% CI])?
Answer: 0.26 µM

Question: And the Emax (GluN1/GluN2C NMDARs; [5])?
Answer: 14%

Question: And the EC50 (GluN1/GluN2C NMDARs; [6])?
Answer: 0.72 µM

Question: What about the Emax (GluN1/GluN2C NMDARs; [6]) of the same compound?
Answer: 41%

Question: And the IC50 (GluN1/GluN2A NMDARs; [1])?
Answer: 2.5 µM

Question: And the IC50 (GluN1/GluN2A NMDARs; [2])?
Answer: 3.6 µM

Question: And the IC50 (GluN1/GluN2A NMDARs; [3])?
Answer: 8 µM

Question: What about the IC50 (GluN1/GluN2A NMDARs; [4]) of the same compound?
Answer: 0.6 µM

Question: And the EC50 (GluN1/GluN2A NMDARs; [7])?
Answer: 0.6 µM

Question: And the Emax (GluN1/GluN2A NMDARs; [5])?
Answer: 6%

Question: And the EC50 (GluN1/GluN2A NMDARs; [6])?
Answer: 1.8 µM

Question: What about the Emax (GluN1/GluN2A NMDARs; [6]) of the same compound?
Answer: 37%

Question: And the IC50 (GluN1/GluN2B NMDARs; +EU1794-27 10 µM, glutamate/glycine 100/30 µM, read-out: EU1794-2 IC50 (µM) [conf. int.])?
Answer: 3.5 µM

Question: What about the IC50 (GluN1/GluN2B NMDARs; +EU1794-27 20 µM, glutamate/glycine 100/30 µM, read-out: EU1794-2 IC50 (µM) [conf. int.]) of the same compound?
Answer: 12 µM

Question: And the IC50 (GluN1/GluN2B NMDARs; read-out: IC50 (µM) [conf. int.])?
Answer: 1.2 µM

Question: What about the EC50 (GluN1/GluN2B NMDARs; [7]) of the same compound?
Answer: 1.2 µM

Question: And the Emax (GluN1/GluN2B NMDARs; [5])?
Answer: 10%

Question: And the EC50 (GluN1/GluN2B NMDARs; [6])?
Answer: 1.4 µM

Question: And the Emax (GluN1/GluN2B NMDARs; [6])?
Answer: 28%

Question: And the kon (GluN1/GluN2D NMDARs; HEK293, read-out: association rate kon)?
Answer: 430000 M⁻¹ s⁻¹

Question: And the koff (GluN1/GluN2D NMDARs; HEK293, read-out: dissociation rate koff)?
Answer: 0.495 s⁻¹

Question: And the Kd (GluN1/GluN2D NMDARs; calculated from association and dissociation rates, HEK cells, read-out: kinetically-determined affinity constant Kd)?
Answer: 1100 nM and 1140 nM
